The structures appear in SMILES notation.

Sequence of USP1 (O94782 whole entry): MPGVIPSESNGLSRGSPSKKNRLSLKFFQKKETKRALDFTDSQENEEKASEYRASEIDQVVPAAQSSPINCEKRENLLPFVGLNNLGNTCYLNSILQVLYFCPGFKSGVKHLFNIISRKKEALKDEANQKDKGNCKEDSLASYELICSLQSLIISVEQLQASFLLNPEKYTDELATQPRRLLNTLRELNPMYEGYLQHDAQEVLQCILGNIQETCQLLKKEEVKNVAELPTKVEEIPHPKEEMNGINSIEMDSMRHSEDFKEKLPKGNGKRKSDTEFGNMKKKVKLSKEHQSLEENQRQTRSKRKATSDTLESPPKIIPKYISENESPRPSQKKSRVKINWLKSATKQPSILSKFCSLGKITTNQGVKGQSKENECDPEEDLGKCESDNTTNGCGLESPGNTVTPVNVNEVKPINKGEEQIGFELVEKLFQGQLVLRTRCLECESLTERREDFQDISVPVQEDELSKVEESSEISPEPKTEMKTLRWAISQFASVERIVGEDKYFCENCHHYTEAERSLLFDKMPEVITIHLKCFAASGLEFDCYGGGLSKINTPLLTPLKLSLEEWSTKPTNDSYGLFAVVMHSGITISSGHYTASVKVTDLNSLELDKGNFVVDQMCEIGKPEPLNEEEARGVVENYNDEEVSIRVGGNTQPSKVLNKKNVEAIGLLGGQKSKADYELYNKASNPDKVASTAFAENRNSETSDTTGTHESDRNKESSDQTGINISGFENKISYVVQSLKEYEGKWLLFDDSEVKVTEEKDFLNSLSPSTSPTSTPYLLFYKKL
Sequence of USP1 (Q8TAF3 whole entry partner): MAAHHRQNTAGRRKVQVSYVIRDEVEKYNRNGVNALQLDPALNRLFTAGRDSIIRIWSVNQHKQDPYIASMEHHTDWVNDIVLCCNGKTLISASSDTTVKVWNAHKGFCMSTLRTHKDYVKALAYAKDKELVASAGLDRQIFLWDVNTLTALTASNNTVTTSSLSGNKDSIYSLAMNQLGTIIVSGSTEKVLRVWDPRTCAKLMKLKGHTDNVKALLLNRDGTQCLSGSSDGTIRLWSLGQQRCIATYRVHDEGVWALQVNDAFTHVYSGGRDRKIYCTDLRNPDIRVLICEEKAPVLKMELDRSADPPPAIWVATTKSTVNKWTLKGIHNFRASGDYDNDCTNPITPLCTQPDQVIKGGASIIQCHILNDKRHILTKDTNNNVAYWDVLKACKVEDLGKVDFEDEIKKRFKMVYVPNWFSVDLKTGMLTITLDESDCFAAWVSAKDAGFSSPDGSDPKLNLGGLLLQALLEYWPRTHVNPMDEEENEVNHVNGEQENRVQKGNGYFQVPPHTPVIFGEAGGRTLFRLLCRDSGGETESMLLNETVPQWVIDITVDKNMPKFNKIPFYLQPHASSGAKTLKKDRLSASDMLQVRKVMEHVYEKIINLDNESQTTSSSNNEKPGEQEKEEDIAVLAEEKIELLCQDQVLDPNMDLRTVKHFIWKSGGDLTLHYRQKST

This assay concerns the target USP1 (Homo sapiens, UniProt O94782). Briefly: Biochemical Assay for USP1 Inhibition (Ub-Rho 110 fluorescence). The settings on record: Table 5; 30 min preincubation, Enzyme 0.025 nM, Substrate Ub-Rho 110 25 nM; read-out: IC50 (μm). On the procedure:
The assay was performed in a final volume of 6 μL in assay buffer containing 20 mM Tris-HCl pH 8.0, (1 M Tris-HCl, pH 8.0 solution; Corning 46-031-CM), 1 mM GSH (L-glutathione reduced, Sigma-Aldrich, G4251-100G), 0.03% BGG (0.22 μM filtered, Sigma, G7516-25G), and 0.01% Triton X-100 (Sigma, T9284-10L). Nanoliter quantities of 10-point, 3-fold serial dilution in DMSO were pre-dispensed into 1536 assay plates (Corning, #3724BC) for a final test concentration of 25 μM to 1.3 nM, top to lowest dose, respectively. Concentration and incubation times were optimized for the maximal signal-to-background while maintaining initial velocity conditions at a fixed substrate concentration (<<Km). 3 μL of 2× Enzyme was added to assay plates (pre-stamped with compound), preincubated for 30 min, and then treated with 3 μL of 2× Substrate (Ub-Rho 110, UbiQ-126). Final concentrations of Enzyme and Substrate are 0.025 nM and 25 nM, respectively. Plates were read using a kinetic protocol continuously for 11 min on the Envision (Perkin Elmer) or PheraSTAR (BMG), excitation at 485 nm and emission at 535 nm or excitation at 520 nm and emission at 590 nm. For all assay formats, data were reported as percent inhibition compared with control wells based on the following equation: % inh=100*([…]), where FLU=measured Fluorescence, AveLow=average Fluorescence of no enzyme control (n=32), and AveHigh=average Fluorescence of DMSO control (n=32). IC50 values were determined by curve fitting of the standard 4 parameter logistic fitting algorithm included in the Activity Base software package: TDBS XE Designer Model205. Data is fitted using the Levenburg Marquardt algorithm.
In Table 5, absolute stereochemistry has not been determined for some Compounds. Accordingly, assignment ofany Compounds as the “R” or “S” stereoisomer is arbitrary, unless otherwise noted. In some cases, Compounds are labeled with “1st eluting isomer”, “2nd eluting isomer”, etc. based on the purification method used to separate the stereoisomers.
For `Cc1nc(-c2cccnc2C(C)C)c2n1CC(C)N(c1ccc(-c3nc(C(F)(F)F)cn3C)cc1)C2` (single isomer, unassigned) [Compound 8-1, 3-[3,6-dimethyl-7-{4-[1-methyl-4-(trifluoromethyl)-1H-imidazol-2-yl]phenyl}-5H,6H,7H,8H-imidazo[1,5-a]pyrazin-1-yl]-2-(propan-2-yl)pyridine], the IC50 (commonly the concentration at which inhibition is half-maximal) was at most 1 µM.

Regarding `Cc1nc(-c2cccnc2OC(F)F)c2n1CC(C)N(c1ccc(-c3nc(C(F)(F)F)cn3C)cc1)C2` (single isomer, unassigned) [Compound 27-1, 2-(difluoromethoxy)-3-[-3,6-dimethyl-7-{4-[1-methyl-4-(trifluoromethyl)-1H-imidazol-2-yl]phenyl}-5H,6H,7H,8H-imidazo[1,5-a]pyrazin-1-yl]pyridine], the IC50 is at most 1 µM.

Take `Cc1nc(-c2cccnc2OC(F)F)c2n1CCN(c1ccc(-c3nc(C(F)(F)F)cn3C)cc1)C2C` (single isomer, unassigned) [Compound 52-1, 2-(difluoromethoxy)-3-[-3,8-dimethyl-7-{4-[1-methyl-4-(trifluoromethyl)-1H-imidazol-2-yl]phenyl}-5H,6H,7H,8H-imidazo[1,5-a]pyrazin-1-yl]pyridine]: the IC50 was at most 1 µM.

On to `Cc1nc(-c2cccnc2OC(F)F)c2n1CCN(c1ccc(-c3nc(C(F)(F)F)cn3C)cc1)C2C` (single isomer, unassigned) [Compound 52-2, 2-(difluoromethoxy)-3-[-3,8-dimethyl-7-{4-[1-methyl-4-(trifluoromethyl)-1H-imidazol-2-yl]phenyl}-5H,6H,7H,8H-imidazo[1,5-a]pyrazin-1-yl]pyridine], for which the IC50 was in the range of 1 to 10 µM.

On to `Cc1nc(-c2cccnc2C(C)C)c2n1C(C)CN(c1ccc(-c3nc(C(F)(F)F)cn3C)cc1)C2` (single isomer, unassigned) [Compound 72-1, 3-[-3,5-dimethyl-7-{4-[1-methyl-4-(trifluoromethyl)-1H-imidazol-2-yl]phenyl}-5H,6H,7H,8H-imidazo[1,5-a]pyrazin-1-yl]-2-(propan-2-yl)pyridine], for which the IC50 is at most 1 µM.

On to `Cc1nc(-c2cccnc2C(C)C)c2n1CCN(c1ccc(-c3nc(C(F)(F)F)cn3C)cc1)C2` [Compound 1, 1-(2-isopropylpyridin-3-yl)-3-methyl-7-(4-(1-methyl-4-(trifluoromethyl)-1H-imidazol-2-yl)phenyl)-5,6,7,8-tetrahydroimidazo[1,5-a]pyrazine], for which the IC50 was at most 1 µM.

On to `CC(C)c1ncccc1-c1nc(C(F)(F)F)n2c1CN(c1ccc(-c3nc(C(F)(F)F)cn3C)cc1)CC2` [Compound 2, 3-(7-{4-[1-methyl-4-(trifluoromethyl)-1H-imidazol-2-yl]phenyl}-3-(trifluoromethyl)-5H,6H,7H,8H-imidazo[1,5-a]pyrazin-1-yl)-2-(propan-2-yl)pyridine], for which the IC50 is at most 1 µM.

Take `Cc1nc(-c2ccccc2C(C)C)c2n1CCN(c1ccc(-c3nc(C(F)(F)F)cn3C)cc1)C2` [Compound 3, 1-methyl-2-(4-{3-methyl-1-[2-(propan-2-yl)phenyl]-5H,6H,7H,8H-imidazo[1,5-a]pyrazin-7-yl}phenyl)-4-(trifluoromethyl)-1H-imidazole]: the IC50 was at most 1 µM.

Regarding `CC(C)c1ncccc1-c1ncn2c1CN(c1ccc(-c3nc(C(F)(F)F)cn3C)cc1)CC2` [Compound 4, 3-(7-{4-[1-methyl-4-(trifluoromethyl)-1H-imidazol-2-yl]phenyl}-5H,6H,7H,8H-imidazo[1,5-a]pyrazin-1-yl)-2-(propan-2-yl)pyridine], the IC50 was at most 1 µM.

On to `Cc1nc(-c2cccnc2C(C)C)c2n1CCN(c1ccc(F)cc1)C2` [Compound 5, 3-[7-(4-fluorophenyl)-3-methyl-5H,6H,7H,8H-imidazo[1,5-a]pyrazin-1-yl]-2-(propan-2-yl)pyridine], for which the IC50 was over 25 µM.

`Cc1nc(-c2cccnc2C(C)C)c2n1CCN(c1ccc(C#N)cc1)C2` [Compound 6, 4-{3-methyl-1-[2-(propan-2-yl)pyridin-3-yl]-5H,6H,7H,8H-imidazo[1,5-a]pyrazin-7-yl}benzonitrile]: the IC50 was over 25 µM.

In the case of `Cc1nc(-c2cccnc2C(C)C)c2n1CCN(c1ccc(-c3nc(C(F)(F)F)cn3C)cc1)C2C` (centres unmarked) [Compound 7, 3-(3,8-dimethyl-7-{4-[1-methyl-4-(trifluoromethyl)-1H-imidazol-2-yl]phenyl}-5H,6H,7H,8H-imidazo[1,5-a]pyrazin-1-yl)-2-(propan-2-yl)pyridine], the IC50 is at most 1 µM.

Take `Cc1nc(-c2cccnc2C(C)C)c2n1CCN(c1ccc(-n3cccn3)cc1)C2` [Compound 9, 3-{3-methyl-7-[4-(1H-pyrazol-1-yl)phenyl]-5H,6H,7H,8H-imidazo[1,5-a]pyrazin-1-yl}-2-(propan-2-yl)pyridine]: the IC50 fell in the range of 1 to 10 µM.

`Cc1nc(-c2cccnc2C(C)C)c2n1CCN(c1ncccn1)C2` [Compound 10, 2-{3-methyl-1-[2-(propan-2-yl)pyridin-3-yl]-5H,6H,7H,8H-imidazo[1,5-a]pyrazin-7-yl}pyrimidine]: the IC50 is over 25 µM.

`Cc1nc(-c2cccnc2C(C)C)c2n1CCN(c1cnccn1)C2` [Compound 11, 2-{3-methyl-1-[2-(propan-2-yl)pyridin-3-yl]-5H,6H,7H,8H-imidazo[1,5-a]pyrazin-7-yl}pyrazine]: the IC50 was over 25 µM.

For the compound `Cc1nc(-c2cccnc2C(C)C)c2n1CCN(c1cccc3[nH]ccc13)C2` [Compound 12, 4-{3-methyl-1-[2-(propan-2-yl)pyridin-3-yl]-5H,6H,7H,8H-imidazo[1,5-a]pyrazin-7-yl}-1H-indole], the IC50 was over 25 µM.

Take `Cc1nc(-c2cccnc2C(C)C)c2n1CCN(c1ccc(-c3nc(C(F)(F)F)cn3C)cn1)C2` [Compound 13, 2-{3-methyl-1-[2-(propan-2-yl)pyridin-3-yl]-5H,6H,7H,8H-imidazo[1,5-a]pyrazin-7-yl}-5-[1-methyl-4-(trifluoromethyl)-1H-imidazol-2-yl]pyridine]: the IC50 is at most 1 µM.

Regarding `Cc1nc(-c2cccnc2C(C)C)c2n1CCN(c1ccc(-c3nccn3C)cc1)C2` [Compound 14, 3-{3-methyl-7-[4-(1-methyl-1H-imidazol-2-yl)phenyl]-5H,6H,7H,8H-imidazo[1,5-a]pyrazin-1-yl}-2-(propan-2-yl)pyridine], the IC50 lay within 1 to 10 µM.

As to `Cc1nc(-c2cccnc2OC(F)F)c2n1CCN(c1ccc(-c3nc(C(F)(F)F)cn3C)cc1)C2` [Compound 15, 2-(difluoromethoxy)-3-(3-methyl-7-{4-[1-methyl-4-(trifluoromethyl)-1H-imidazol-2-yl]phenyl}-5H,6H,7H,8H-imidazo[1,5-a]pyrazin-1-yl)pyridine], the IC50 was at most 1 µM.

For the compound `Cc1nc(-c2cccnc2OCC(F)(F)F)c2n1CCN(c1ccc(-c3nc(C(F)(F)F)cn3C)cc1)C2` [Compound 16, 3-(3-methyl-7-{4-[1-methyl-4-(trifluoromethyl)-1H-imidazol-2-yl]phenyl}-5H,6H,7H,8H-imidazo[1,5-a)pyrazin-1-yl)-2-(2,2,2-trifluoroethoxy)pyridine], the IC50 was at most 1 µM.

As to `COc1ccc(N2CCn3c(C)nc(-c4cccnc4C(C)C)c3C2)cc1` [Compound 17, 3-[7-(4-methoxyphenyl)-3-methyl-5H,6H,7H,8H-imidazo[1,5-a]pyrazin-1-yl]-2-(propan-2-yl)pyridine], the IC50 is over 25 µM.

As to `Cc1nc(-c2cccnc2C(C)C)c2n1CCN(c1ccc(N(C)C)cc1)C2` [Compound 18, N,N-dimethyl-4-{3-methyl-1-[2-(propan-2-yl)pyridin-3-yl]-5H,6H,7H,8H-imidazo[1,5-a]pyrazin-7-yl}aniline], the IC50 was over 25 µM.

On to `Cc1nc(-c2cccnc2C(C)C)c2n1CCN(c1cc(N3CCCCC3)ncn1)C2` [Compound 19, 4-{3-methyl-1-[2-(propan-2-yl)pyridin-3-yl]-5H,6H,7H,8H-imidazo[1,5-a]pyrazin-7-yl}-6-(piperidin-1-yl)pyrimidine], for which the IC50 was 10 to 25 µM.

Turning to `Cc1nc(-c2cccnc2OC(C)C)c2n1CCN(c1ccc(-c3nc(C(F)(F)F)cn3C)cc1)C2` [Compound 20, 3-(3-methyl-7-{4-[1-methyl-4-(trifluoromethyl)-1H-imidazol-2-yl]phenyl}-5H,6H,7H,8H-imidazo[1,5-a]pyrazin-1-yl)-2-(propan-2-yloxy)pyridine], the IC50 was at most 1 µM.

On to `Cc1ccc(N2CCn3c(C)nc(-c4cccnc4C(C)C)c3C2)cc1` [Compound 21, 3-[3-methyl-7-(4-methylphenyl)-5H,6H,7H,8H-imidazo[1,5-a]pyrazin-1-yl]-2-(propan-2-yl)pyridine], for which the IC50 was 10 to 25 µM.

Turning to `COc1ccc(N2CCn3c(C)nc(-c4cccnc4C(C)C)c3C2)cn1` [Compound 22, 2-methoxy-5-{3-methyl-1-[2-(propan-2-yl)pyridin-3-yl]-5H,6H,7H,8H-imidazo[1,5-a]pyrazin-7-yl}pyridine], the IC50 lay in the range of 10 to 25 µM.

(Values after US20220073525A1, “COMPOSITIONS FOR INHIBITING UBIQUITIN SPECIFIC PROTEASE 1” (FORMA Therapeutics, Inc., priority 2019, published 2022).)
